Measurements reported in patent US20230124634A1, “ANTIBACTERIAL COMPOSITION” (CONOPCO, INC., D/B/A UNILEVER, priority 2020, published 2023).

Experiments:
[1] = tested on: Staphylococcus aureus ATCC 6538; assay: In-Vitro Time-Kill assay (EN 1040:2005 with minor modifications); type: cell-based
Procedure: Inoculums of S. aureus at about 10^7.5 colony forming units per milliliter (CFU/mL) were prepared from 24-hour cultures on agar plates. […]
The log10 of (number of surviving cells (CFU/mL)/initial number of cells) is plotted versus the exposure time. […] The exposure time is limited to only 60 s, as this time frame is a realistic estimate of the amount of time devoted to hand washing.
Surfactant Solution Preparation—Solution preparation consisted of mixing the surfactant solution with an equal volume of the appropriate buffer to form a test solution containing 50% of the original formulation concentration. Sodium carbonate/bicarbonates buffers (0.1 M) were prepared for use at pH 10 and 7, respectively, while sodium acetate buffer was used at pH 5.
The bacteria were stored at −80° C. and fresh working cultures were prepared by streaking on Tryptic Soy Agar plates for 24 hours at 37° C. and then preparing second subcultures in the same way before each experiment.
Following this procedure, stationary-phase bacterial cultures at approximately […] colony forming units (CFU) per mL (GF-U) were treated with the surfactant solution (as described above) at 25° C., rather than at 20° C. as specified in the Standard. In constructing the test sample, 8 parts by weight of the surfactant solution was combined with 1 part by weight of the culture and 1 part by weight of water. After 10, 20, 30, and 60 seconds of exposure, the samples were neutralized to arrest the antibacterial activity of the surfactant solution. […] The test solutions were serially diluted, plated on solid medium, and incubated for 24 hours. The surviving cells were then enumerated. Bactericidal activity was defined as the log10 reduction in CFU relative to the initial bacterial concentration at 0 seconds. Cultures not exposed to surfactant solution acted as the no-treatment controls. The log10 reduction was calculated using the formula:
log10 reduction=log10(CFU in no-treatment control)−log10(CFU in treated sample)

[2] = cited from earlier work
[3] = Silver ion solubility derived from solubility product (Ksp) in water at 25° C.; conditions: calculated from Ksp
Excerpt: More particularly, silver ion solubility [Ag+], a value given in mol/L may be calculated using the formula:

[4] = pH 5; cited from earlier work
[5] = throughout the pH interval claimed

In the case of “sodium cocoyl glutamate [reference compound]”, the “biocidal, inherently or in combination with silver ion” value (from here on “biocidal … with silver ion”) ([1]; pH 7) is reported as “ineffective”.

In the case of `O=[N+]([O-])[O-].[Na+]` [NaNO3, sodium nitrate], the “NaNO3 necessary to recover a one unit log10 reduction in S. aureus” value ([1]; in the presence of 0.03 M NaCl, SLES/Ag^+, pH 7.0) is reported as ≥ 0.3 M.

With sodium lauryl ether sulfate [SLES] the “synergy with silver ion” value ([1]; pH 5) was “strong synergy with silver ion”, the log10 reduction ([1]; pH 5, on its own) was “about 2 log10” and the log10 unit reduction ([1]; pH 7, SLES at 1% (top-half of Table 5)) was ≤ 1 log10. For the same compound, the log10 unit reduction ([1]; pH 7, SLES at 10% (second half of Table 5)) was ≤ 1 log10.

For “sodium lauryl ether sulfate with (on average) 1 ethoxy group [SLES-1 EO]”, the log10 reduction ([1]; pH range of 7-10, in the presence of silver ion) was “about 4 log10”, the log10 reduction ([1]; pH range of 7-10, without silver) was “about 0.5 log10” and the inherent biocidal action [1, 5] was “limited inherent biocidal action”. The “synergy with silver ion” value [1, 5] was “strong synergy with silver ion”.

In the case of `O=S(=O)([O-])[O-].[Ag+].[Ag+]` [Silver sulfate], the “Ksp (mol/L in water at 25° C.)” value [2] is given as 1.4e-05 mol/L.

In the case of “Sodium methyl cocoyl taurate [reference compound]”, the “synergy with silver ion” value ([1]; pH 5) is reported as “nor does it enhance the biocidal action of silver ion”, the intrinsic biocidal properties ([1]; pH 5, on its own) is reported as “does not have intrinsic biocidal properties” and the “biocidal … with silver ion” value ([1]; pH 7) is reported as “ineffective”.

For `[Cl][Ag]` [Silver chloride], the “Silver Ion Solubility [Ag+] (mol/L in water at 25° C.)” value [3] is listed as 1.3e-05 mol/L and the “Ksp (mol/L in water at 25° C.)” value [2] is listed as 1.8e-10 mol/L.

In the case of “sodium lauroamphoacetate [reference compound]”, the “biocidal … with silver ion” value ([1]; pH 7) is reported as “ineffective”.

With “sodium lauryl ether sulfate with (on average) 3 ethoxy groups [SLES-3EO]” the inherent biocidal action [1, 5] was “limited inherent biocidal action” and the “synergy with silver ion” value [1, 5] was “strong synergy with silver ion”.

With “octyl phenol ethoxylate [Triton X-100, reference compound]” the “biocidal … with silver ion” value ([1]; pH 5, 10-60 second time scale) was “not biocidal” and the “biocidal … with silver ion” value ([1]; pH 7) was “ineffective”.

For `C/C=C/C=C/C(=O)O` [sorbic acid], the “percentage of organic acid preservative remaining undissociated (and active)” value [4] is listed as 37%.

For `O=C(O)c1ccccc1` [benzoic acid], the “percentage of organic acid preservative remaining undissociated (and active)” value [4] is given as 13%.

With `[Ag+]` [silver ion] the “minimum level of silver ion necessary to see enhanced biocidal action” value ([1]; in the presence of 10% SLES and 0.5 M NaNO3, pH 7 and 25° C.) was ≥ 0.03 ppm.

With “sodium cocoyl glycinate [reference compound]” the “biocidal … with silver ion” value ([1]; pH 7) was “ineffective”.

For `CCCCCCCCCCCCOS(=O)(=O)[O-].[Na+]` [SDS, sodium dodecyl sulfate], the “synergy with silver ion” value ([1]; pH 5) was “strong synergy with silver ion”, the intrinsic biocidal properties ([1]; pH 5, on its own) was “quite biocidal on its own” and the inherent biocidal action [1, 5] was “limited inherent biocidal action”. The “synergy with silver ion” value [1, 5] was “strong synergy with silver ion”.

For `[Br][Ag]` [Silver bromide], the “Ksp (mol/L in water at 25° C.)” value [2] is listed as 5.3e-13 mol/L.

In the case of `O=C([O-])c1ccccc1.[Ag+]` [Silver benzoate], the “Ksp (mol/L in water at 25° C.)” value [2] is listed as 2.5e-05 mol/L.

For `O=C([O-])CC(O)(CC(=O)[O-])C(=O)[O-].[Ag+].[Ag+].[Ag+]` [Silver citrate], the “Ksp (mol/L in water at 25° C.)” value [2] is given as 2.5e-16 mol/L.
